What was measured:
[1] = tested on: P388 leukemia cells; assay: IP injection study in vivo, P388 leukemia in DBA/2 mice; conditions: in vivo experiment 4, daily IP injections
Protocol: Mice were 26-27 days old. […] Purina mouse chow was supplied ad libitum.
In experiments 3 & 4 (Tables 12a & 13a) the DBA/2 mouse was used.
DNA was determined on total cells with no differentiation between viable and non-viable cells.

[2] = tested on: P388 leukemia cells; assay: Viable P388 leukemia cells in cell culture (trypan blue); conditions: 48 hours, 37° C.
[3] = in vitro experiment 1, 8 ml treatment
[4] = in vitro experiment 2, 2 ml treatment

O=C(O)c1cc(=O)[nH]c(=O)[nH]1 [Orotic Acid, orotic acid]
% Inhibition (numbers of viable P388 cells) [1]: 38%
DNA Content [1]: 428 µg/mL
Numbers of Viable P388 Cells/ml [1]: 4.20 × 10^7 ± 630000 cells/ml
% Inhibition Based on Ringers Locke Control [2, 3]: 11%
Numbers of Viable P388 Cells/ml [2, 3]: .66 × 10^6 ± 3500 Cells/ml
% Inhibition Based on Extraction Blank [2, 4]: Stimulation
% Inhibition Based on PBS Control [2, 4]: Stimulation
Numbers of Viable P388 Cells/ml [2, 4]: 1.90 × 10^6 ± 7100 Cells/ml
